Measurements reported in patent US20120322824A1, “Cocaine Antagonist/Antidepressant Pharmaceutical Preparations” (priority 2011, published 2012).
Like-named read-outs stand apart in the source and are kept apart here.

Tests used:
[1] = human subjects, cited from earlier work
mice [2] = assay: locomotor activity (Opto-Varimax 4 Activity Analyzer); format: in vivo
Protocol: Referring now to FIGS. 2a-d, locomotor activity was assessed in a non-invasive manner using a Opto-Varimax 4 Activity Analyzer (Columbus Instruments, Columbus, Ohio) that measures animal activity in a cage intersected with photocells projecting infrared beams 2.5 cm apart and 2 cm above the floor. After a brief habituation period, animals were treated with either sterile water as vehicle or MI-4 and activity was measured for 20 min.

mice [3] = assay: tail suspension test (TST); format: in vivo
Description: Referring now to FIGS. 5a-d, the tail suspension test (TST) and forced swim test (FST) are well-established, prototypical rodent models of learned helplessness. […] These assays are based on the premise that helpless or “depressed” animals struggle less to escape the mild but inescapable stress of being suspended or being immersed in room temperature water. […] In the TST, standard laboratory tape is used to immobilize an animal by its tail to a fixed support approximately 10.5 inches above a surface. The duration of the test is six minutes during which time animal movement is videotaped and later scored for immobility time (in sec) by a blinded observer. Similarly, in the FST animals are immersed in approximately 10 cm of 25° C. water in a 20 cm×13 cm glass cylinder. Animals were tested for 5 min and behavior was videotaped and scored for immobility time (sec) by a blinded observer.

mice [4] = assay: conditioned place preference assay (CPP); format: in vivo
Protocol: The conditioned place preference assay (CPP) is one test commonly used to show the ability of an antagonist to block rewarding effects in mice. Referring now to FIGS. 1a-b, according to the CPP test mice are placed in an apparatus with two chambers that differ in both visual and tactile cues. Over the course of a one-week training period, a rewarding drug (e.g.—cocaine) is administered once daily exclusively in one chamber so as to allow animals to associate the cues of that chamber with the drug. Sterile water is administered once daily while the animals occupy the opposite chamber to control for non-drug effects. At the conclusion of the training period, animals are allowed free access to both chambers and the time spent in each chamber is measured electronically. It is well known that addictive substances increase the amount of time animals spend in the drug-paired chamber, in the absence of any intervention.
Moreover, additional testing was performed to control for effects of MI-4 on general behavioral activity, an essential consideration when interpreting results from locomotor-based behavioral paradigms such as the CPP test.

mice [5] = assay: open field test, time spent in center; format: in vivo; conditions: FIG. 3
Description: Anxiety disorders are often co-morbid with depression and antidepressant drugs are used in the treatment of anxiety. Tests for anxiety in rodents, such as the open field test, make use of the aversion of the animals for exposed locations. Treatment with anxiolytics such as diazepam or fluoxetine increases the amount of time an animal will spend in the center of the open field. We used the Opto-Varimax 4 Activity Analyzer to assess the time animals spent in the center of the open field vs. the periphery after treatment with MI-4. Data were measured as time spent in center (TIC).

[6] = target: serotonin (5-HT) transporter (Homo sapiens, UniProt P31645); assay: in vitro binding affinity, serotonin transporter; conditions: in vitro studies
Chain of serotonin (5-HT) transporter (P31645 whole entry): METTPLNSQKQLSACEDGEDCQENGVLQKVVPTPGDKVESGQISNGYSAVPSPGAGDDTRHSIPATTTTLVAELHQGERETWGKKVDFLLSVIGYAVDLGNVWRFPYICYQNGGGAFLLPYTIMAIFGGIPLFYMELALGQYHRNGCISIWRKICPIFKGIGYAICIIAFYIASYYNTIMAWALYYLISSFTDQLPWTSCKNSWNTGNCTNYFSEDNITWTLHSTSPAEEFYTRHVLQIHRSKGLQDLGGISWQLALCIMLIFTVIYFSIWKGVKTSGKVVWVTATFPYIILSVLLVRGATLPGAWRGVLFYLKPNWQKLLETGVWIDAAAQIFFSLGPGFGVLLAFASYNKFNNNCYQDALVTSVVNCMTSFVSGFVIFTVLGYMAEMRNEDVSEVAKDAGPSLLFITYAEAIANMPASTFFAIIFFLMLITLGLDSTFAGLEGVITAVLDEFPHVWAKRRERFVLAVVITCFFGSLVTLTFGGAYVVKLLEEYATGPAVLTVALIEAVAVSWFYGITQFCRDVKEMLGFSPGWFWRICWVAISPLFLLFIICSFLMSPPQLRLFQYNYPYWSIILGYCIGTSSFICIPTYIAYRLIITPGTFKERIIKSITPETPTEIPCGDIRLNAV

[7] = target: dopamine (DA) transporter (Homo sapiens, UniProt Q01959); assay: in vitro binding affinity, dopamine transporter; conditions: in vitro studies
Chain of dopamine (DA) transporter (Q01959 whole entry): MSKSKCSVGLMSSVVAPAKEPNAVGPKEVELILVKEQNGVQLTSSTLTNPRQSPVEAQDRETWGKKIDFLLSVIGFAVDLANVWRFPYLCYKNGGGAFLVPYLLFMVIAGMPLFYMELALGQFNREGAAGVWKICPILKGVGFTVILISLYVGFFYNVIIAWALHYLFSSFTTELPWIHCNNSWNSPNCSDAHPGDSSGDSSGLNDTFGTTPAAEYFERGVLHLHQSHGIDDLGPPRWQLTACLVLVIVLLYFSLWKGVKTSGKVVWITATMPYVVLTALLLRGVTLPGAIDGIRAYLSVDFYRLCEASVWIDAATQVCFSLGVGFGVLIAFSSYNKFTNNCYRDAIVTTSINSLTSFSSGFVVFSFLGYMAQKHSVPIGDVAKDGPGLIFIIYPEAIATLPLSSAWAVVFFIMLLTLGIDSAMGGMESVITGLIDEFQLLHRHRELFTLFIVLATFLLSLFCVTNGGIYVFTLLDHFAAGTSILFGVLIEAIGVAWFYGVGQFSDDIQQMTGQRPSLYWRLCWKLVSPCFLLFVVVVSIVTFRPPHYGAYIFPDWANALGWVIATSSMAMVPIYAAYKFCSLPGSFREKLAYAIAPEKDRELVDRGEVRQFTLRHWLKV

[8] = target: noreinephrine (NE) transporter (Homo sapiens, UniProt P23975); assay: in vitro binding affinity, norepinephrine transporter; conditions: in vitro studies
Chain of noreinephrine (NE) transporter (P23975 whole entry): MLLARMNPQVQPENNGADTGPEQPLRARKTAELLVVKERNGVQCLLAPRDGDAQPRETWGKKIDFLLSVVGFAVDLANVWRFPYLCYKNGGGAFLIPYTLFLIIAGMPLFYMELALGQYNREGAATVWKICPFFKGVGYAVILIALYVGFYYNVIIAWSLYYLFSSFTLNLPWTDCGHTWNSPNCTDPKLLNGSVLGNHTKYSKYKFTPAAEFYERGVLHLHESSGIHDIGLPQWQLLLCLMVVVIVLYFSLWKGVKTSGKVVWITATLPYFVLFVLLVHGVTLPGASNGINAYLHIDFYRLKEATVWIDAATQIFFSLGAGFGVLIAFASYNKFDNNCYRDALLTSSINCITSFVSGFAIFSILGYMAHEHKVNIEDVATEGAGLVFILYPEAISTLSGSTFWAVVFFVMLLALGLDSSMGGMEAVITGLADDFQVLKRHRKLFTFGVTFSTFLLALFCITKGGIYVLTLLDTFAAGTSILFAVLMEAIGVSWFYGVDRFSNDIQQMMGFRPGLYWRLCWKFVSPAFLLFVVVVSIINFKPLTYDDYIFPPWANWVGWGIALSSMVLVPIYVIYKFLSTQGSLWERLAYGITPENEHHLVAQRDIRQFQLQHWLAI

rodents = conditions: doses less than 100 mg/kg, i.p.; cited from earlier work
[9] = intravenous administration for up to 72 hours

## C[C@@H]([C@@H](O)c1ccc(O)cc1)N1CCC(O)(c2ccccc2)CC1 [traxoprodil]
[1]; extensive metabolizers (EM)
  oral bioavailability: 23-62%
[1]; [9]
  adverse effects: no observable adverse effects
  sustained levels in the cerebral spinal fluid: > 200 ng/mL
  sustained levels in the plasma: > 200 ng/mL
[1]; poor metabolizers (PM)
  oral bioavailability: approx. 80%

## Oc1ccc(C2=CCN(C[C@H](O)COCc3ccccc3Cl)CC2)cc1 [MI-17, reference compound]
Mice [2]; beginning at 3 mg/kg but mostly at 10 mg/kg, FIG. 4a
  distance traveled: dramatically decreased
Mice [2]; beginning at 3 mg/kg but mostly at 10 mg/kg, FIG. 4b
  resting time: dramatically increasing
Mice [2]; beginning at 3 mg/kg but mostly at 10 mg/kg, FIG. 4c
  stereotopy time: dramatically decreased
Mice [2]; beginning at 3 mg/kg but mostly at 10 mg/kg, FIG. 4d
  ambulatory time: dramatically decreased
Mice [3]; 2% DMSO vehicle, FIG. 5c
  immobility times in the TST: dose-dependently increased
Mice [3]; 55% DMSO vehicle in the oxalate form, FIG. 5d
  immobility times in the TST: dose-dependently increased

## C[C@@H](CN1CCC(Cc2ccccc2)CC1)[C@@H](O)c1ccc(O)cc1 (relative stereo) [MI-4, ([R-(R*,S*)]-α-(4-Hydroxyphenyl)-β-methyl-4-(phenylmethyl)-1-piperidinepropanol]
Mice [4]; MI-4 10/mg/kg i.p. co-administered with cocaine 10 mg/kg i.p., FIG. 1b
  effect of cocaine on time in drug-paired chamber when co-administered: reduced by half
Mice [4]; administered alone at the same dose (10/mg/kg, i.p.)
  rewarding effects when administered alone (time spent in the MI-4-paired chamber): did not exhibit rewarding effects
Mice [2]; MI-4 vs sterile water vehicle, 20 min, FIG. 2a
  distance traveled: only minor effects
Mice [2]; MI-4 vs sterile water vehicle, 20 min, FIG. 2b
  ambulatory time: only minor effects
Mice [2]; MI-4 vs sterile water vehicle, 20 min, FIG. 2c
  stereotopy time (grooming behavior): did not significantly alter
Mice [2]; MI-4 vs sterile water vehicle, 20 min, FIG. 2d
  resting time: only minor effects
Mice [3]; six minute test, FIG. 5a, comparable in effect to fluovoxamine and desipramine
  immobility time in the TST: dose-dependent reduction in immobility time
Mice [5]; 10 mg/kg
  time in center in the open field: decreased time in center
Mice [5]
  time spent in center (TIC) in the open field: did not significantly increase
[6]
  binding affinity for the serotonin (5-HT) transporter: physiologically-relevant binding affinity
[7]
  binding affinity for the dopamine (DA) transporter: physiologically-relevant binding affinity
[8]
  binding affinity for the noreinephrine (NE) transporter: physiologically-relevant binding affinity
rodents
  adverse effects (tolerability): no observable adverse effects
